These are literature values, as cited in patent US20250120959A1, “NEW FORMULATIONS OF PITOLISANT AND METHODS OF USE” (Bioprojet Pharma, priority 2023, published 2025).

Counter-ions that a name gives are not always drawn.

For `Clc1ccc(CCCOCCCN2CCCCC2)cc1` [Formula (Ia), 1-[3-[3-(4-chlorophenyl)propoxy]propyl]-piperidine monohydrochloride], the pKa entry is given as “approximately 10.5”.
